The results in this text go back to patent US4690945A, “Process for the preparation of 5'-substituted 2-(3'-thienyl)propionic acids” (Laboratorios Madaus Cerafarm, S.A., priority 1981, dated 1987).

“Also recorded” adds a separate entry of the source.

A short description of data set [1]: overall pharmacological (anti-inflammatory and analgesic) action, tests on rats and mice. It is filed as in vivo. To be noted: for anti-inflammatory activity (in words): in mammals; for pharmacological action (in words): analgesic and anti-inflammatory. How it is done: (§1) The pharmacological tests were performed on rats and mice, using the carrageenin edema procedure on rats' legs and backs by the test for anti-inflammatory action and the acetic acid contorsion and hot plate tests on mice for the purpose of testing analgesic action.
(§2) In the anti-inflammatory action test, the test was performed on rat leg edema induced by carrageenin, administering the compounds per os and measuring the volume of the edema 3 hours later by plethysmography.
(§3) The anti-inflammatory action of these compounds was also examined by the carrageenin abscess test on rats' backs, the abscess being weighed 24 hours after administration of the product.
(§4) For the examination of analgesic action, the acetic acid and hot plate tests were used.
(§5) In the acetic acid test, the number of contorsions (stretching) is determined, which are produced for 30 minutes following intraperitoneal administration of dilute acetic acid. Analgesic action is also tested by the hot plate test in which the pain stimulus is thermal, the time being measured in seconds which the animal takes to respond to the stimulus by licking its feet.

Data set [2] has as its system rat leg edema induced by carrageenin. Nature of the data set: carrageenin edema procedure on rats' legs (Δ volume), anti-inflammatory action. It is filed as in vivo. More on the design: key to Anti-inflammatory action, Δ volume: +++: Intense action; ++: Medium action; +: Minimal action; ±: Doubtful action; -: Negative action; --: Not tested. Conditions: per os, 3 hours; for Anti-inflammatory action, Δ volume: class symbol; for ED50: po. The method, then: as §1, §2
(§6) The results obtained in both tests are expressed as a percentage of inhibition of the edema or abscess, and were better than 30% in comparison with a control group.
(The carrageenan paw model is a standard test of acute inflammation.)

The test system of data set [3] is carrageenin abscess on rats' backs. Nature of the data set: carrageenin abscess test on rats' backs (Δ abscess), anti-inflammatory action. It is filed as in vivo. On the set-up: key to Anti-inflammatory action, Δ abscess: +++: Intense action; ++: Medium action; +: Minimal action; ±: Doubtful action; -: Negative action; --: Not tested. Conditions: rat back carrageenin abscess, weighed 24 hours after administration; for Anti-inflammatory action, Δ abscess: class symbol. The method, then: as §1, §3, §6

Data set [4] has as its system contorsions (stretching) induced by intraperitoneal dilute acetic acid. Briefly: acetic acid contorsion test on mice, analgesic action. More on the design: key to Analgesic action, Acetic acid: +++: Intense action; ++: Medium action; +: Minimal action; ±: Doubtful action; -: Negative action; --: Not tested. Conditions: for ED50: Mus musculus, ip, 0.5 h; for ED50 / Analgesic action, Acetic acid: mice, contorsions during 30 minutes after i.p. acetic acid; for analgesic action (in words): acetic acid and hot plate tests; for Analgesic action, Acetic acid: class symbol. It is filed as in vivo. How it is done:
as §5, with “The pharmacological tests were performed on rats and mice, using the carrageenin edema procedure on rats' legs and backs by the test for anti-inflammatory action and the acetic acid contorsion and hot plate tests on mice for the purpose of testing analgesic action. For the examination of analgesic action, the acetic acid and hot plate tests were used. […] In” for “In”
A general note: Hot-plate and tail-flick tests time the reaction to a heat stimulus.

Data set [5] is described as follows: acute toxicity (DL50 / LD50). To be noted: mouse, in vivo. The source says: Most of the compounds described in these examples have been tested pharmacologically and toxicologically (DL50) according to the methods indicated on pages 5 to 7, and the results are summarized in the appended table.
In data set [6] the test system is thermal pain stimulus (hot plate). Nature of the data set: hot plate test on mice, analgesic action. It is filed as in vivo. On the set-up: key: +++: Intense action; ++: Medium action; +: Minimal action; ±: Doubtful action; -: Negative action; --: Not tested. Conditions: class symbol. The method, then:
as §1, §4, §5

For `CC(C(=O)O)c1csc(C(=O)c2ccccc2)c1` (stereo not shown) [A], the “anti-inflammatory activity (in words)” value in data set [1] is “potent anti-inflammatory activity”.

Regarding `CC(C(=O)O)c1csc(C(=O)c2ccc(Cl)cc2)c1` (stereo not shown) [B], the “anti-inflammatory activity (in words)” value in data set [1] is recorded as “potent anti-inflammatory activity”.

Take `CC(C(=O)O)c1csc(C(=O)c2ccccc2)c1` (stereo not shown) [LMC-I, 2-(5'-benzoyl-3'-thienyl)propionic acid]: in data set [2], the “Anti-inflammatory action, Δ volume” value is given as “+++” and the ED50 came to 7.3 mg/kg. Moreover, in data set [3], the ED50 was determined as 12.5 mg/kg and the “Anti-inflammatory action, Δ abscess” value is “+++”. Further, in data set [4], the ED50 came out at 50 mg/kg; the “analgesic action (in words)” value is “have an analgesic action”; the “Analgesic action, Acetic acid” value was “+++”. Further, the LD50 (in general, the dose expected to kill half of the subjects tested) in data set [5] was approximately 400 mg/kg. Besides, the “pharmacological action (in words)” value in data set [1] was “notable analgesic and anti-inflammatory action; also recorded: most active compounds”. In data set [1] (listed as I), the “anti-inflammatory activity (in words)” value was “anti-inflammatory activity in mammals”.

Regarding `CC(C(=O)O)c1csc(C(=O)c2ccc(Cl)cc2)c1` (stereo not shown) [LMC-II, 2-(5'-(4"-chloro)benzoyl-3'-thienyl)propionic acid], in data set [2], the “Anti-inflammatory action, Δ volume” value is “+++” and the ED50 is 17.3 mg/kg. In data set [3], the ED50 was 23.5 mg/kg and the “Anti-inflammatory action, Δ abscess” value is “+++”. In data set [4], the ED50 came to 69.6 mg/kg; the “analgesic action (in words)” value is on record as “have an analgesic action”; the “Analgesic action, Acetic acid” value was “+++”. Moreover, the LD50 in data set [5] is approximately 1200 mg/kg. In addition, in data set [1], the “pharmacological action (in words)” value is reported as “notable pharmacological action, though it is inferior to that of compound I; also recorded: most active compounds”. Further, the “anti-inflammatory activity (in words)” value in data set [1] (listed as II) is “anti-inflammatory activity in mammals”.

For `CC(C(=O)O)c1csc(C(=O)c2ccc(Cl)cc2Cl)c1` (stereo not shown) [LMC-III, 2-(5'-(2",4"-dichloro)benzoyl-3'-thienyl)propionic acid], the “Anti-inflammatory action, Δ volume” value in data set [2] was “±”. The “Anti-inflammatory action, Δ abscess” value in data set [3] is “+”. The “Analgesic action, Acetic acid” value in data set [4] is “+”. The “Analgesic action, Plate” value in data set [6] is “+”. Further, in data set [5], the LD50 is approximately 1000 mg/kg.

With `Cc1ccc(C(=O)c2cc(C(C)C(=O)O)cs2)cc1` (stereo not shown) [LMC-IV], the “Anti-inflammatory action, Δ volume” value in data set [2] is on record as “+++”. Also, in data set [3], the “Anti-inflammatory action, Δ abscess” value is recorded as “++”. In addition, in data set [4], the “Analgesic action, Acetic acid” value is listed as “++”. Moreover, the “Analgesic action, Plate” value in data set [6] was “++”. In addition, the LD50 in data set [5] is approximately 1200 mg/kg. Further, the “pharmacological action (in words)” value in data set [1] was “best representative of this action”.

Regarding `CC(C)C(=O)c1cc(C(C)C(=O)O)cs1` (stereo not shown) [LMC-V, 2-(5'-isobutyryl-3'-thienyl)propionic acid], in data set [2], the “Anti-inflammatory action, Δ volume” value is recorded as “++”. Further, the “Anti-inflammatory action, Δ abscess” value in data set [3] is on record as “+”. In data set [6], the “Analgesic action, Plate” value is recorded as “+”. The compound further had an LD50 in data set [5] of approximately 1500 mg/kg.

With `CC(C(=O)O)c1csc(Cc2ccccc2)c1` (stereo not shown) [LMC-VII, 2-(5'-benzyl-3'-thienyl)propionic acid], the “Anti-inflammatory action, Δ volume” value in data set [2] was “+”. This compound also showed an LD50 in data set [5] of approximately 1500 mg/kg.

Turning to `CC(C)Cc1cc(C(C)C(=O)O)cs1` (stereo not shown) [LMC-VI], in data set [2], the “Anti-inflammatory action, Δ volume” value is reported as “+”. Further, the “Anti-inflammatory action, Δ abscess” value in data set [3] is reported as “+”. Also, in data set [6], the “Analgesic action, Plate” value is listed as “+”. The compound also returned an LD50 in data set [5] of more than 1000 mg/kg.
